From patent US8846733B2, “Oxazolyl-methylether derivatives as ALX receptor agonists” (Actelion Pharmaceuticals Ltd., priority 2010, dated 2014)

biological target: T1, recombinant human ALX receptor (Homo sapiens, UniProt P25090); assay: Intracellular calcium measurements (FLIPR), ALX receptor agonistic activity; format: cell-based; settings: HEK293-hALXR-Gα16 cells; Table 1, exemplified compounds
T1 construct: expressed in transfected cells; host or cells: HEK293 (HEK293-hALXR-Gα16)
T1 sequence (P25090 1-351): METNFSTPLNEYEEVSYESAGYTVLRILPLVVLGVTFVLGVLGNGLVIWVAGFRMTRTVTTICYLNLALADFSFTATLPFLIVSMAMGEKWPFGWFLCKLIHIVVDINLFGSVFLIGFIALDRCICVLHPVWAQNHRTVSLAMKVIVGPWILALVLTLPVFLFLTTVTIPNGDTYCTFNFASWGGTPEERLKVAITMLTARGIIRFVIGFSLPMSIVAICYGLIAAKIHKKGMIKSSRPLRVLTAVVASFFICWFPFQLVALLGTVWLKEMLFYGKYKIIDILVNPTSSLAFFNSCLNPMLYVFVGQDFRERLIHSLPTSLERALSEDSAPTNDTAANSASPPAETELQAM
Procedure: The ALX receptor agonistic activity of the compounds of formula (I) is determined in accordance with the following experimental method.
Intracellular Calcium Measurements:
Cells expressing recombinant human ALX receptor and the G-protein Gα16 (HEK293-hALXR-Gα16) were grown to 80% confluency in Growing Medium (GM). Cells were detached from culture dishes with a cell dissociation buffer (Invitrogen, 13151-014), and collected by centrifugation at 1,000 rpm at rt for 5 min in Assay Buffer (AB) (equal parts of Hank's BSS (Gibco, 14065-049) and DMEM without Phenol Red (Gibco, 11880-028)). After 60 min incubation at 37° C. under 5% CO2 in AB supplemented with 1 μM Fluo-4 (AM) (Invitrogen, F14202) and 20 mM HEPES (Gibco, 15630-056), the cells were washed and resuspended in AB. They were then seeded onto 384-well FLIPR assay plates (Greiner, 781091) at 50,000 cells in 70 μl per well and sedimented by centrifugation at 1,000 rpm for 1 min. Stock solutions of test compounds were made up at a concentration of 10 mM in DMSO, and serially diluted in AB to concentrations required for activation dose response curves. WKYMVm (Phoenix Peptides) was used as a reference agonist. A FLIPR Tetra instrument (Molecular Devices) was operated according to the manufacturer's standard instructions, adding 4 μl of test compound dissolved at 10 mM in DMSO and diluted prior to the experiment in assay buffer to obtain the desired final concentration. Changes in fluorescence were monitored before and after the addition of test compounds at lex=488 nm and lem=540 nm. Emission peak values above base level after compounds addition were exported after base line subtraction. Values were normalized to high-level control (WKYMVm compound, 10 nM final concentration) after subtraction of the base line value (AB addition).

SMILES | EC50 [nM]
COCc1coc(Cn2ncc(NC(=O)c3nc(C4CC4)oc3-c3cccc(C)c3)n2)n1 [Example 12, 2-Cyclopropyl-N-(2-((4-(methoxymethyl)oxazol-2-yl)methyl)-2H-1,2,3-triazol-4-yl)-5-(m-tolyl)oxazole-4-carboxamide] | 11.6
COCc1coc(Cn2ncc(NC(=O)c3nc(C)oc3-c3cccc(OC)c3)n2)n1 [Example 8, N-(2-((4-(Methoxymethyl)oxazol-2-yl)methyl)-2H-1,2,3-triazol-4-yl)-5-(3-methoxyphenyl)-2-methyloxazole-4-carboxamide] | 8.8
COCc1coc(Cn2ncc(NC(=O)c3ncoc3-c3ccccc3)n2)n1 [Example 13, N-(2-((4-(Methoxymethyl)oxazol-2-yl)methyl)-2H-1,2,3-triazol-4-yl)-5-phenyloxazole-4-carboxamide] | 5
COC(C)(C)c1coc(Cn2ncc(NC(=O)c3nc(C)oc3-c3cccc(C)c3)n2)n1 [Example 1, N-(2-((4-(2-Methoxypropan-2-yl)oxazol-2-yl)methyl)-2H-1,2,3-triazol-4-yl)-2-methyl-5-(m-tolyl)oxazole-4-carboxamide] | 6.6
COCc1coc(Cn2ncc(NC(=O)c3nc(C)oc3-c3cccc(C(F)(F)F)c3)n2)n1 [Example 5, N-(2-((4-(Methoxymethyl)oxazol-2-yl)methyl)-2H-1,2,3-triazol-4-yl)-2-methyl-5-(3-(trifluoromethyl)phenyl)oxazole-4-carboxamide] | 5.6
COCc1coc(Cn2ncc(NC(=O)c3ncoc3-c3cccc(C)c3)n2)n1 [Example 10, N-(2-((4-(Methoxymethyl)oxazol-2-yl)methyl)-2H-1,2,3-triazol-4-yl)-5-(m-tolyl)oxazole-4-carboxamide] | 4.6
CCOCc1coc(Cn2ncc(NC(=O)c3ncoc3-c3ccccc3)n2)n1 [Example 15, N-(2-((4-(ethoxymethyl)oxazol-2-yl)methyl)-2H-1,2,3-triazol-4-yl)-5-phenyloxazole-4-carboxamide] | 8.6
COCc1coc(Cn2ncc(NC(=O)c3nc(C)oc3-c3cccc(Cl)c3)n2)n1 [Example 4, 5-(3-Chlorophenyl)-N-(2-((4-(methoxymethyl)oxazol-2-yl)methyl)-2H-1,2,3-triazol-4-yl)-2-methyloxazole-4-carboxamide] | 2.1
COCc1coc(Cn2ncc(NC(=O)c3nc(C)oc3-c3cccc(OC(F)(F)F)c3)n2)n1 [Example 11, N-(2-((4-(Methoxymethyl)oxazol-2-yl)methyl)-2H-1,2,3-triazol-4-yl)-2-methyl-5-(3-(trifluoromethoxy)phenyl)oxazole-4-carboxamide] | 7.4
COCc1coc(Cn2ncc(NC(=O)c3ncoc3-c3cccc(Cl)c3)n2)n1 [Example 6, 5-(3-Chlorophenyl)-N-(2-((4-(methoxymethyl)oxazol-2-yl)methyl)-2H-1,2,3-triazol-4-yl)oxazole-4-carboxamide] | 4
COCc1coc(Cn2ncc(NC(=O)c3nc(C)oc3-c3ccccc3)n2)n1 [Example 3, N-(2-((4-(Methoxymethyl)oxazol-2-yl)methyl)-2H-1,2,3-triazol-4-yl)-2-methyl-5-phenyloxazole-4-carboxamide] | 4.3
COCc1coc(Cn2ncc(NC(=O)c3ncoc3-c3cccc(OC)c3)n2)n1 [Example 7, N-(2-((4-(Methoxymethyl)oxazol-2-yl)methyl)-2H-1,2,3-triazol-4-yl)-5-(3-methoxyphenyl)oxazole-4-carboxamide] | 17.5
CCOCc1coc(Cn2ncc(NC(=O)c3nc(C)oc3-c3cccc(C)c3)n2)n1 [Example 14, N-(2-((4-(ethoxymethyl)oxazol-2-yl)methyl)-2H-1,2,3-triazol-4-yl)-2-methyl-5-(m-tolyl)oxazole-4-carboxamide] | 6.7

same assay, conditions: HEK293-hALXR-Gα16 cells; Table 2, compound failing within formula I of WO 2009/077990

SMILES | EC50 [nM]
CC(=O)c1nc(Cn2ncc(NC(=O)c3ncoc3-c3ccccc3)n2)co1 | 1.5
CC(=O)c1csc(Cn2ncc(NC(=O)c3ncoc3-c3ccccc3)n2)n1 [example 39] | 8.1
CC(=O)c1cnc(Cn2ncc(NC(=O)c3ncoc3-c3ccccc3)n2)s1 [example 73] | 88
CC(=O)c1ncc(Cn2ncc(NC(=O)c3ncoc3-c3ccccc3)n2)s1 [example 67] | 73
CC(=O)c1nc(Cn2ncc(NC(=O)c3ncoc3-c3ccccc3)n2)cs1 [example 45] | 93
CC(=O)c1nc(Cn2ncc(NC(=O)c3nc(C)oc3-c3cccc(C)c3)n2)co1 | 0.9

same assay, conditions: HEK293-hALXR-Gα16 cells; Table 2, reference compounds

SMILES | EC50 [nM]
COCc1csc(Cn2ncc(NC(=O)c3ncoc3-c3ccccc3)n2)n1 [reference compound 5, N-(2-((4-(methoxymethyl)thiazol-2-yl)methyl)-2H-1,2,3-triazol-4-yl)-5-phenyloxazole-4-carboxamide] | 48
COCc1ccc(Cn2ncc(NC(=O)c3ncoc3-c3ccccc3)n2)s1 [reference compound 4, N-(2-((5-(methoxymethyl)thiophen-2-yl)methyl)-2H-1,2,3-triazol-4-yl)-5-phenyloxazole-4-carboxamide] | 2300
COCc1ccc(Cn2ncc(NC(=O)c3ncoc3-c3ccccc3)n2)o1 [reference compound 3, N-(2-((5-(methoxymethyl)furan-2-yl)methyl)-2H-1,2,3-triazol-4-yl)-5-phenyloxazole-4-carboxamide] | 498
COCc1ncc(Cn2ncc(NC(=O)c3nc(C)oc3-c3cccc(C)c3)n2)s1 [reference compound 1, N-(2-((2-(Methoxymethyl)thiazol-5-yl)methyl)-2H-1,2,3-triazol-4-yl)-2-methyl-5-(m-tolyl)oxazole-4-carboxamide] | 4810
COCc1cnc(Cn2ncc(NC(=O)c3nc(C)oc3-c3cccc(C)c3)n2)s1 [reference compound 2, N-(2-((5-(Methoxymethyl)thiazol-2-yl)methyl)-2H-1,2,3-triazol-4-yl)-2-methyl-5-(m-tolyl)oxazole-4-carboxamide] | 2540
COCc1nc(Cn2ncc(NC(=O)c3ncoc3-c3ccccc3)n2)cs1 [reference compound 6, N-(2-((2-(methoxymethyl)thiazol-4-yl)methyl)-2H-1,2,3-triazol-4-yl)-5-phenyloxazole-4-carboxamide] | 146
COC(C)(C)c1nc(Cn2ncc(NC(=O)c3ncoc3-c3ccccc3)n2)co1 [reference compound 9, N-(2-((2-(2-methoxypropan-2-yl)oxazol-4-yl)methyl)-2H-1,2,3-triazol-4-yl)-5-phenyloxazole-4-carboxamide] | 685
COCc1nc(Cn2ncc(NC(=O)c3nc(C)oc3-c3cccc(C)c3)n2)co1 [reference compound 10, N-(2-((2-(Methoxymethyl)oxazol-4-yl)methyl)-2H-1,2,3-triazol-4-yl)-2-methyl-5-(m-tolyl)oxazole-4-carboxamide] | 8.1
COCc1cnc(Cn2ncc(NC(=O)c3ncoc3-c3ccccc3)n2)s1 [reference compound 8, N-(2-((5-(methoxymethyl)thiazol-2-yl)methyl)-2H-1,2,3-triazol-4-yl)-5-phenyloxazole-4-carboxamide] | 5950
COCc1ncc(Cn2ncc(NC(=O)c3ncoc3-c3ccccc3)n2)s1 [reference compound 7, N-(2-((2-(methoxymethyl)thiazol-5-yl)methyl)-2H-1,2,3-triazol-4-yl)-5-phenyloxazole-4-carboxamide] | 8130
